Reference: publication PMC12881670, “Investigation into ligand selectivity and bias at the formyl peptide receptor family” (The Journal of Pharmacology and Experimental Therapeutics, 2025)
Like-named read-outs stand apart in the source and are kept apart here. Where a SMILES comes first, the peptide text is derived from it. Where no end group is shown, it is not given here. [ ]: non-standard residue; d: D form. The star is where a group is joined. For = O=C*

How the values were obtained:
[1] = tested on: FPR2; conditions: read-out: EC50 arrestin recruitment, Pathhunter, cited from earlier work
[2] = target: T1, Mm_Fpr1 (Mus musculus, UniProt P33766); experiment: BRET receptor-RLuc8 interaction with Venus-mGsi; type: cell-based; conditions: for Log EC50 (M): log of EC50, HEK293 transient, 10 min; for Log EC50 (M) / Emax (%): mGsi BRET, mean, ND = no interaction detected; for Emax (%): % of response to 1 μM WKYMVm
T1 construct: expressed in transfected cells
T1 sequence (P33766 1-364): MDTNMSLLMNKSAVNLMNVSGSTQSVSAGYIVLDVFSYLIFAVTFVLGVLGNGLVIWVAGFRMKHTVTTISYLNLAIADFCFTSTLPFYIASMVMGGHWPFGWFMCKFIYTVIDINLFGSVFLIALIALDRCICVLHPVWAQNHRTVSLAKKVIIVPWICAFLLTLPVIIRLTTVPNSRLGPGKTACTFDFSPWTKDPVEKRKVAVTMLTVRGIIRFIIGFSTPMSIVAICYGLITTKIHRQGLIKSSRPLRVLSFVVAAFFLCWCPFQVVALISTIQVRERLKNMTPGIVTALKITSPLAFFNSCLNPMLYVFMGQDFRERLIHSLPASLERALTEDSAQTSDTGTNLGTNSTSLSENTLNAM
Procedure, shortened: (§1)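 Receptor-RLuc8 and acceptor plasmids (Venus-mGsi or YFP-Arrestin 3, 1:4) are transfected; cells are replated after 24 h and grown 24–48 h more. Wells are equilibrated 30 min in HBSS, given coelenterazine h (5 μM final), dosed with compound 5 min later and held 10 min at 37 °C before the BRET read.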

[3] = target: T2, Mm_Fpr2 (Mus musculus, UniProt O88536); experiment: BRET receptor-RLuc8 interaction with Venus-mGsi; type: cell-based; conditions: for Log EC50 (M): log of EC50, HEK293 transient, 10 min; for Log EC50 (M) / Emax (%): mGsi BRET, mean, ND = no interaction detected; for Emax (%): % of response to 1 μM WKYMVm
T2 construct: expressed in transfected cells
T2 sequence (O88536 1-351): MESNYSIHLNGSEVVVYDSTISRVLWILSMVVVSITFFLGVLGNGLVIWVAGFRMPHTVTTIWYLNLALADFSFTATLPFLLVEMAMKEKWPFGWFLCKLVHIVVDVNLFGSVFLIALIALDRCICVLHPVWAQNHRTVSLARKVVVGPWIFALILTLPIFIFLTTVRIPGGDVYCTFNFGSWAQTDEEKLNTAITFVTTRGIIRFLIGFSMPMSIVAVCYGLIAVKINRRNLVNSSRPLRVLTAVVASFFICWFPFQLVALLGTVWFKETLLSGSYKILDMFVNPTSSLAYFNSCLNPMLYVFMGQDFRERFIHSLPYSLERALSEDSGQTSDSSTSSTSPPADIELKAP
Procedure, shortened: as §1

[4] = tested on: formyl peptide receptor family (Hs_FPR1, Hs_FPR2, Mm_Fpr1, Mm_Fpr2); experiment: Summary of main findings: receptor subtype selectivity and ligand bias across all readouts; design: species or system human and mouse; conditions: for Bias: summary grade of ligand bias relative to WKYMVm, key not given; for Notes: summary of main findings, in words
Excerpt: To determine ligand bias, a reference ligand is required, that is, “balanced” for the pathways tested.[37] […] We then used measurements of the activity ratio (Log (Emax/EC50)) for each receptor, ligand, and pathway in an attempt to observe any ligand bias (Fig. 6).

[5] = target: T1, Mm_Fpr1; experiment: ERK1/2 phosphorylation by Western blotting; type: cell-based; design: Emax: dose or concentration left out as unconfirmed; conditions: for Log EC50 (M) / EC50: log of EC50, phosphorylation of ERK1/2, HEK293 stable cells; for Log EC50 (M) / Emax (%) / EC50: mean, ND = no pERK signal detected; for Emax (%): phospho-ERK, % of 1 μM WKYMVm
[6] = target: T3, FLAG-tagged mouse Fpr1 (Mm_Fpr1) (mouse, UniProt P33766 1-364); experiment: cell-based or functional assay
T3 sequence (looked up): T1 sequence (P33766 1-364)

[7] = target: T4, FLAG-tagged human FPR1 (Hs_FPR1) (human, UniProt P21462 1-350); experiment: cell-based or functional assay
T4 sequence (looked up): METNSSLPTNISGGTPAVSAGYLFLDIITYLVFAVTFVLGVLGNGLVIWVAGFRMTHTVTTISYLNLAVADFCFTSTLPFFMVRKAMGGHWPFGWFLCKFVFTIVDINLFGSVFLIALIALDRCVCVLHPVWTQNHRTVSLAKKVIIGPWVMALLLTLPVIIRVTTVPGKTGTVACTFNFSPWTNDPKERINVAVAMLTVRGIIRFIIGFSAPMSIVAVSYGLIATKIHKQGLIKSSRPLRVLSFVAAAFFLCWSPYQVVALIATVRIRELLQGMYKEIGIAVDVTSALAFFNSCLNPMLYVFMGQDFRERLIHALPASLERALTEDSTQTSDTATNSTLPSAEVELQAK

[8] = target: T5, FLAG-tagged human FPR2 (Hs_FPR2) (human, UniProt P25090 1-351); experiment: cell-based or functional assay
T5 sequence (looked up): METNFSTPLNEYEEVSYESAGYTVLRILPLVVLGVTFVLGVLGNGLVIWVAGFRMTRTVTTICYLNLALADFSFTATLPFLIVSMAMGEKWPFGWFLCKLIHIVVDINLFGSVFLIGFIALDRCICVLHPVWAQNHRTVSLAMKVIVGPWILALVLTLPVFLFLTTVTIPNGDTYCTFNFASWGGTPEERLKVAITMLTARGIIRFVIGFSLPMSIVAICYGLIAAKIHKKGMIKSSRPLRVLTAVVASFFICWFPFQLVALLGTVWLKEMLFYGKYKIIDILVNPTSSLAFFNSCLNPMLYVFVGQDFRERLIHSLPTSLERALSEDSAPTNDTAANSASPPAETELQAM

[9] = target: T6, FLAG-tagged mouse Fpr2 (Mm_Fpr2) (mouse, UniProt O88536 1-351); experiment: cell-based or functional assay
T6 sequence (looked up): T2 sequence (O88536 1-351)

Cc1cccc(-c2oc(C)nc2C(=O)Nc2cnn(Cc3nc(C(C)(F)F)co3)n2)c1 [ACT-389949]
EC50 ([1]; FPR2): 20 nM | Log EC50 (M) [2]: −5.74 M | Emax (%) [2]: 49.76% | Log EC50 (M) [3]: −7.57 M | Emax (%) [3]: 116.06% | Bias [4]: No | Log EC50 (M) [5]: −6.383 M | Emax (%) [5]: 99.504%

COc1cc(F)c([C@@H]2CNC(=O)[C@H]2NC(=O)Nc2ccccc2)c(F)c1 [BMS-986235]
EC50 ([1]; Hs_FPR2): 130 nM | EC50 [2]: 1410 nM | Emax [2]: 21.7% | EC50 [3]: 166 nM | Emax [3]: 104% | Bias [4]: + (Hs_FPR2) | Notes [4]: Bias against internalization | Emax [5]: 114% | EC50 [5]: 982 nM

CCCCOc1ccc(C(=O)NN2C(=O)c3ccccc3NC2c2ccc(OC)cc2)cc1 (stereo not shown) [QuinC1]
Log EC50 (M) [2]: −7.49 M | Emax (%) [2]: 30.89% | Log EC50 (M) [3]: −6.35 M | Emax (%) [3]: 70.36% | Bias [4]: No | Notes [4]: Partial/weak only | Log EC50 (M) [5]: −6.945 M | Emax (%) [5]: 150.3%

CSCC[C@H](NC(=O)[C@H](Cc1ccc(O)cc1)NC(=O)[C@H](CCCCN)NC(=O)[C@@H](N)Cc1c[nH]c2ccccc12)C(=O)N[C@H](C(=O)N[C@H](CCSC)C(N)=O)C(C)C [WKYMVm]
Emax [2]: 109% | Emax [3]: 103% | Emax [5]: 102%

CSCC[C@H](NC=O)C(=O)N[C@@H](CC(C)C)C(=O)N[C@@H](Cc1ccccc1)C(=O)N[C@@H](CCCCN)C(=O)O [fMLFK, fMet-Leu-Phe-Lys] (For-MLFK-OH)
EC50 [2]: 9550 nM | Emax [2]: 62.9% | EC50 [3]: 30200 nM | Emax [3]: 82.7% | Emax [5]: 140% | EC50 [5]: 851 nM

LESIFRSLLFRVM [MMK1]
Bias [4]: No | Notes [4]: Only activity at Hs_FPR2

B1: WKYMVm (peptide)
peptide: WKYMV[dM]
notes: the last residue is the D form; the bought peptide is probably also an amide (surmise); source: bought: Tocris
ERK1/2 phosphorylation (Western blot): Emax (% of 1 μM WKYMVm) [6]: 102% | ERK1/2 phosphorylation (Western blot): Log EC50 (M) [6]: -8.43 log M | ERK1/2 phosphorylation (Western blot): Emax (% of 1 μM WKYMVm) [7]: 104% | ERK1/2 phosphorylation (Western blot): Log EC50 (M) [7]: -9.1 log M | ERK1/2 phosphorylation (Western blot): Emax (% of 1 μM WKYMVm) [8]: 93.8% | ERK1/2 phosphorylation (Western blot): Emax (% of 1 μM WKYMVm) [9]: 118% | ERK1/2 phosphorylation (Western blot): Log EC50 (M) [9]: -9.06 log M
